From ChEMBL document CHEMBL1124261 (J Med Chem, 1988)
pIC50, pKi: −log10 of the molar value.

Experiments:
L1210 [1] = experiment: Increase in life span of mice infected with L1210 leukemia after an intraperitoneal dose of 4 mg/kg for 9 days; assay type: functional; settings: Mus musculus, L1210, ip, 216 h
L1210 [2] = experiment: Range for the survival of mice infected with L1210 leukemia after an intraperitoneal dose of 4 mg/kg for 9 days; assay type: functional, Mus musculus
L1210 [3] = experiment: Mean change in weight of mice infected with L1210 leukemia after 7 days after an intraperitoneal dose of 4 mg/kg; assay type: functional, Mus musculus
L1210 [4] = experiment: Mean survival of mice infected with L1210 leukemia after an intraperitoneal dose of 4 mg/kg for 9 days; assay type: functional, Mus musculus
L1210 [5] = experiment: Mean survival of mice infected with L1210 leukemia after an intraperitoneal dose of 25 mg/kg for 9 days; assay type: functional, Mus musculus
L1210 [6] = experiment: Increase in life span of mice infected with L1210 leukemia after an intraperitoneal dose of 12.5 mg/kg for 9 days; assay type: functional; settings: Mus musculus, L1210, ip, 216 h
L1210 [7] = experiment: Range for the survival of mice infected with L1210 leukemia after an intraperitoneal dose of 12.5 mg/kg for 9 days; assay type: functional, Mus musculus
L1210 [8] = experiment: Mean survival of mice infected with L1210 leukemia after an intraperitoneal dose of 12.5 mg/kg for 9 days; assay type: functional, Mus musculus
L1210 [9] = experiment: Increase in life span of mice infected with L1210 leukemia after an intraperitoneal dose of 50 mg/kg for 9 days; assay type: functional; settings: Mus musculus, L1210, ip, 216 h
L1210 [10] = experiment: Mean survival of mice infected with L1210 leukemia after an intraperitoneal dose of 6.25 mg/kg for 9 days; assay type: functional, Mus musculus
L1210 [11] = experiment: Increase in life span of mice infected with L1210 leukemia after an intraperitoneal dose of 6.25 mg/kg for 9 days; assay type: functional; settings: Mus musculus, L1210, ip, 216 h
Mus musculus [12] = organism: Mus musculus; experiment: (§1) Tested for inhibition against purified Folyl-polyglutamate synthase from mouse liver; settings: concentration not given here
L1210 [13] = experiment: Mean change in weight of mice infected with L1210 leukemia after 7 days after an intraperitoneal dose of 12.5 mg/kg; assay type: functional, Mus musculus
L1210 [14] = experiment: Tested for cell-growth inhibition against mouse leukemic L1210 cells; assay type: functional, cell-based
Dihydrofolate reductase = target: T1, Dihydrofolate reductase (Mus musculus, UniProt P00375); experiment: biochemical
T1 sequence (P00375 whole entry): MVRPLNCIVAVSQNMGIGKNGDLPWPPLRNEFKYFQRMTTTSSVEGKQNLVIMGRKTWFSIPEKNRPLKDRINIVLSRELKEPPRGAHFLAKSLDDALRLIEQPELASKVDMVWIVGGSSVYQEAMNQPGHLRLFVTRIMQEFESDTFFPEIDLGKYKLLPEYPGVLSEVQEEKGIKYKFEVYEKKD
Description: Tested for inhibition against purified Dihydrofolate reductase from L1210 murine leukemia cells

L1210 [15] = experiment: Range for the survival of mice infected with L1210 leukemia after an intraperitoneal dose of 25 mg/kg for 9 days; assay type: functional, Mus musculus
L1210 [16] = experiment: Increase in life span of mice infected with L1210 leukemia after an intraperitoneal dose of 25 mg/kg for 9 days; assay type: functional; settings: Mus musculus, L1210, ip, 216 h
[17] = Inhibitory constant against purified Folyl-polyglutamate synthase from mouse liver; assay type: functional
L1210 [18] = experiment: Mean change in weight of mice infected with L1210 leukemia after 7 days after an intraperitoneal dose of 25 mg/kg; assay type: functional, Mus musculus
L1210 [19] = experiment: Mean change in weight of mice infected with L1210 leukemia after 7 days after an intraperitoneal dose of 6.25 mg/kg; assay type: functional, Mus musculus
L1210 ( R81) = experiment: Tested for cell-growth inhibition against mouse leukemic L1210/R81 cells; assay type: functional, cell-based
L1210 [20] = experiment: Range for the survival of mice infected with L1210 leukemia after an intraperitoneal dose of 50 mg/kg for 9 days; assay type: functional, Mus musculus
L1210 [21] = experiment: Mean survival of mice infected with L1210 leukemia after an intraperitoneal dose of 50 mg/kg for 9 days; assay type: functional, Mus musculus
L1210 [22] = experiment: Mean change in weight of mice infected with L1210 leukemia after 7 days after an intraperitoneal dose of 50 mg/kg; assay type: functional, Mus musculus
L1210 [23] = experiment: Range for the survival of mice infected with L1210 leukemia after an intraperitoneal dose of 6.25 mg/kg for 9 days; assay type: functional, Mus musculus
Mus musculus [24] = organism: Mus musculus; experiment: as §1; assay type: functional; settings: dose or concentration not given here
L1210 [25] = experiment: Range for the survival of mice infected with L1210 leukemia after an intraperitoneal dose of 6.25 mg/kg for 9 days; Range is 10-13; assay type: functional, Mus musculus
L1210 [26] = experiment: Range for the survival of mice infected with L1210 leukemia after an intraperitoneal dose of 50 mg/kg for 9 days; Range is 8-16
L1210 [27] = experiment: Range for the survival of mice infected with L1210 leukemia after an intraperitoneal dose of 12.5 mg/kg for 9 days; Range is 10-15; assay type: functional, Mus musculus

SMILES	Survival (L1210 [5]) [days]	ILS at 12.5 mg/kg (L1210 [6]) [%]	Survival (L1210 [8]) [days]	ILS at 50 mg/kg (L1210 [9]) [%]	Survival (L1210 [10]) [days]	ILS at 6.25 mg/kg (L1210 [11]) [%]	Weight change (L1210 [13]) [%]	pIC50 (L1210 [14])	pIC50 (Dihydrofolate reductase)	Range (L1210 [15]) [days]	ILS at 25 mg/kg (L1210 [16]) [%]	pKi [17]	Weight change (L1210 [18]) [%]	Weight change (L1210 [19]) [%]	pIC50 (L1210 ( R81))	Survival (L1210 [21]) [days]	Weight change (L1210 [22]) [%]	also measured
CN(Cc1cnc2nc(N)nc(N)c2n1)c1ccc(C(=O)N[C@@H](CCC(=O)O)C(=O)O)cc1 [METHOTREXATE]																		ILS at 4 mg/kg (L1210 [1]): 95%; Range (L1210 [2]): 23 days; Weight change (L1210 [3]): 8%; Survival (L1210 [4]): 17.2 days
Nc1nc(N)c2nc(CNc3ccc(C(=O)NC(CCCCCCCCCCC(=O)O)C(=O)O)cc3)cnc2n1 (stereo unspecified)	9.6	57	13.8	18	12.8	45	10	8.96	7.17	16	11	4.21	-3	10	3.67	10.4	4	Range (L1210 [7]): 16 days; inhibition (Mus musculus [12]): 74%; Range (L1210 [20]): 15 days; Range (L1210 [23]): 13 days
Nc1nc(N)c2nc(CNc3ccc(C(=O)NC(CCCCCCC(=O)O)C(=O)O)cc3)cnc2n1 (stereo unspecified)	11.8	61	14.2	20	12	36	9	7.70	7.27	16	34	3.77	5	9	< 3.66	10.6	7	inhibition (Mus musculus [24]): 50%; Range (L1210 [25]): 10 days; Range (L1210 [26]): 8 days; Range (L1210 [27]): 10 days
